In patent publication US10214519B2, “Phosphatidylinositol 3-kinase inhibitors” (Gilead Sciences, Inc., priority 2016, dated 2019):
pIC50: −log10 of the molar value.

Target: PI3Kβ (Homo sapiens (Human), UniProt P42338)
Assay: PI3K isoform TR-FRET enzymatic assay (PI3Kβ)
Format: biochemical
Conditions: 2× Km ATP, 30 minutes at 25° C.
Outline: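 Heterodimeric recombinant PI3Kβ was incubated with compound 30 minutes at 25° C. Product was detected by TR-FRET competition with 10 nM labeled PIP3 for 35 nM Eu-GRP-1 PH domain after EDTA stop. Data were normalized to 1 μM wortmannin and DMSO, and IC50 was taken from a four-parameter fit.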

Chain of PI3Kβ (P42338 whole entry, canonical isoform): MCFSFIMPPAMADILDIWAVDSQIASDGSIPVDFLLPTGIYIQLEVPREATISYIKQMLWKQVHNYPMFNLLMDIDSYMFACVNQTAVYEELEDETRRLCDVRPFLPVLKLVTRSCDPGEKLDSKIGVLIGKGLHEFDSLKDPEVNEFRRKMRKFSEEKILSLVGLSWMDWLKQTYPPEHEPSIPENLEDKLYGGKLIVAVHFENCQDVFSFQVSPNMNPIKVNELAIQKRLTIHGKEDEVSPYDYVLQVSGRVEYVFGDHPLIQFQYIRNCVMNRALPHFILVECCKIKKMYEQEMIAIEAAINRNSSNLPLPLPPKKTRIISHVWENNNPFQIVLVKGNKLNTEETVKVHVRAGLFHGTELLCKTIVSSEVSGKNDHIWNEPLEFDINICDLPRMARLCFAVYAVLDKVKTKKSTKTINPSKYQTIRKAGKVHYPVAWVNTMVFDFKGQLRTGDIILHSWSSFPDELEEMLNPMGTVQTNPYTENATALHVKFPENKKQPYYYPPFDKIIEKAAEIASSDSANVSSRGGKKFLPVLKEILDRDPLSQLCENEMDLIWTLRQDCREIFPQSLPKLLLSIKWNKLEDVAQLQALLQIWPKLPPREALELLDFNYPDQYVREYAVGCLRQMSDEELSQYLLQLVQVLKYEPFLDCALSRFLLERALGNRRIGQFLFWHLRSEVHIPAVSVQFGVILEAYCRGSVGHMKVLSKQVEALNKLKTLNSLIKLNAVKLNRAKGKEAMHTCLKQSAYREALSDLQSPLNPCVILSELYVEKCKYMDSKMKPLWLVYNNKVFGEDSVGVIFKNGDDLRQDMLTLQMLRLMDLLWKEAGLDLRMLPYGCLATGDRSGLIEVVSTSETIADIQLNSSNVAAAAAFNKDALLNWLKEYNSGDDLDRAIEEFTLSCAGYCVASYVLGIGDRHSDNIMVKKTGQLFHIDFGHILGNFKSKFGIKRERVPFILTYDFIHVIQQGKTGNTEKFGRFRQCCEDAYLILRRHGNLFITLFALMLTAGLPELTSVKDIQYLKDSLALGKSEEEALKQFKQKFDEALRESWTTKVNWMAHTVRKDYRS
Chain of PI3Kβ (P27986 whole entry partner, canonical isoform): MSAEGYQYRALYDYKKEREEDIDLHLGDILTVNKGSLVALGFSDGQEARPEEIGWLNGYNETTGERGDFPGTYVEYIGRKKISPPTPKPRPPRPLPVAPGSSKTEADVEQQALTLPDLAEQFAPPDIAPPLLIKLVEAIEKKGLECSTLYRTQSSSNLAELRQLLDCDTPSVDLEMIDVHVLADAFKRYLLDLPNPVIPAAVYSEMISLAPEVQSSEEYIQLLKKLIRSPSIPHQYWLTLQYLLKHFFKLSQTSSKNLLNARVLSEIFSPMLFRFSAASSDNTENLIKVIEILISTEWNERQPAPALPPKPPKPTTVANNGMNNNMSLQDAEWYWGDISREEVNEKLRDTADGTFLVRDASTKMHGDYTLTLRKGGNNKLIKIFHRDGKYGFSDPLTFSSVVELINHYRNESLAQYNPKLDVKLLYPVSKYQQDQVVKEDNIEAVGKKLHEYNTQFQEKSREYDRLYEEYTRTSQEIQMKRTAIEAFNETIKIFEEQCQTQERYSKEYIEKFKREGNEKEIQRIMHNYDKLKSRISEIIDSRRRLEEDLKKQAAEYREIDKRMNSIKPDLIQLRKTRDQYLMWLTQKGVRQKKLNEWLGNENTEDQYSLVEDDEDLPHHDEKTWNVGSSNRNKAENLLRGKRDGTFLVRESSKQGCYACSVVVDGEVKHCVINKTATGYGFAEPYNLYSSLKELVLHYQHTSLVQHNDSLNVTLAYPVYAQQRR

Compared with Cc1nc2c(-c3cccnc3)cc(N3CCOCC3)cc2n1-c1ccnc2c(Cl)cccc12 [Example 317, 4-[3-(8-chloroquinolin-4-yl)-2-methyl-7-pyridin-3-ylbenzimidazol-5-yl]morpholine], Cc1nc2c(-c3ccncc3)cc(N3CCOCC3)cc2n1-c1ccnc2c(Cl)cccc12 [Example 319, 4-[3-(8-chloroquinolin-4-yl)-2-methyl-7-pyridin-4-ylbenzimidazol-5-yl]morpholine] is 1.09 log units lower in pIC50: 6.16 for the first, 5.07 for the second. The first is the more potent here.

First: Cc1nc2c(-c3cccnc3)cc(N3CCOCC3)cc2n1-c1ccnc2c(-c3cccnc3)cccc12 [Example 318, 4-[2-methyl-7-pyridin-3-yl-3-(8-pyridin-3-ylquinolin-4-yl)benzimidazol-5-yl]morpholine]
Second: Cc1nc2c(-c3ccncc3)cc(N3CCOCC3)cc2n1-c1ccnc2c(-c3ccncc3)cccc12 [Example 320, 4-[2-methyl-7-pyridin-4-yl-3-(8-pyridin-4-ylquinolin-4-yl)benzimidazol-5-yl]morpholine]
The pIC50 of the first is higher: 5.28 for the first, under 5.00 for the second. The first is the more potent here.

First: Cc1nc2c(-c3cccc(C(N)=O)c3)cc(N3CCOCC3)cc2n1-c1ccnc2c(Cl)cccc12 [Example 321, 3-[1-(8-chloroquinolin-4-yl)-2-methyl-6-morpholin-4-ylbenzimidazol-4-yl]benzamide]
Second: Cc1nc2c(-c3ccccn3)cc(N3CCOCC3)cc2n1-c1ccnc2c(Cl)cccc12 [Example 323, 4-[3-(8-chloroquinolin-4-yl)-2-methyl-7-pyridin-2-ylbenzimidazol-5-yl]morpholine]
The pIC50 of the first is 1.02 log units lower: 5.36 for the first, 6.38 for the second.

Going from Cc1nc2c(-c3cccc(C(N)=O)c3)cc(N3CCOCC3)cc2n1-c1ccnc2c(-c3cccc(C(N)=O)c3)cccc12 [Example 322, 3-[4-[4-(3-carbamoylphenyl)-2-methyl-6-morpholin-4-ylbenzimidazol-1-yl]quinolin-8-yl]benzamide] to Cc1nc2c(-c3cnn[nH]3)cc(N3CCOCC3)cc2n1-c1ccnc2c(Cl)cccc12 [Example 329, 4-(1-(8-chloroquinolin-4-yl)-2-methyl-4-(1H-1,2,3-triazol-5-yl)-1H-benzo[d]imidazol-6-yl)morpholine], the pIC50 rises from under 5.00 to 8.15.

Going from Cc1cc(-n2cnc3c(-c4cnc[nH]4)cc(N4CCOCC4)cc32)c2c(Cl)ccc(Cl)c2n1 [Example 330] to Cc1cc(-n2c(C)nc3c(-c4cnc[nH]4)cc(N4CCOCC4)cc32)c2c(Cl)ccc(Cl)c2n1 [Example 333, 4-[3-(5,8-dichloro-2-methylquinolin-4-yl)-7-(1H-imidazol-5-yl)-2-methylbenzimidazol-5-yl]morpholine], the pIC50 falls from 8.30 to 8.05 (0.25 log units). The first is the more potent here.

Going from CCc1nc2c(-c3c[nH]cn3)cc(N3CCOCC3)cc2n1-c1ccnc2c(Cl)cccc12 [Example 331, 4-[3-(8-chloroquinolin-4-yl)-2-ethyl-7-(1H-imidazol-4-yl)benzimidazol-5-yl]morpholine] to Clc1cccc2c(-n3cnc4c(-c5c[nH]cn5)cc(N5CCOCC5)cc43)ccnc12 [Example 332, 4-(1-(8-chloroquinolin-4-yl)-4-(1H-imidazol-4-yl)-1H-benzo[d]imidazol-6-yl)morpholine], the pIC50 rises from 8.15 to 8.70 (0.55 log units). The second is the more potent here.

CCc1nc2c(-c3cnc[nH]3)cc(N3CCOCC3)cc2n1-c1cc(C)nc2c(Cl)ccc(Cl)c12 [Example 334, 4-[3-(5,8-dichloro-2-methylquinolin-4-yl)-2-ethyl-7-(1H-imidazol-5-yl)benzimidazol-5-yl]morpholine] and CCc1nc2c(-c3cnc[nH]3)cc(N3CCOCC3)cc2n1-c1ccnc2c(F)ccc(F)c12 [Example 337, 4-[3-(5,8-difluoroquinolin-4-yl)-2-ethyl-7-(1H-imidazol-5-yl)benzimidazol-5-yl]morpholine] are within 0.2 log units of each other in pIC50: 7.62 for the first, 7.70 for the second.

Going from Cc1nc2c(-c3cnc[nH]3)cc(N3CCOCC3)cc2n1-c1ccnc2c(F)ccc(F)c12 [Example 335, 4-[3-(5,8-difluoroquinolin-4-yl)-7-(1H-imidazol-5-yl)-2-methylbenzimidazol-5-yl]morpholine] to Cc1nc2c(-c3cnn[nH]3)cc(N3CCOCC3)cc2n1-c1ccnc2c(F)ccc(F)c12 [Example 377, 4-(1-(5,8-difluoroquinolin-4-yl)-2-methyl-4-(1H-1,2,3-triazol-5-yl)-1H-benzo[d]imidazol-6-yl)morpholine], the pIC50 falls from 7.82 to 7.46 (0.36 log units).

Compared with Fc1ccc(F)c2c(-n3cnc4c(-c5cnc[nH]5)cc(N5CCOCC5)cc43)ccnc12 [Example 336, 4-[3-(5,8-difluoroquinolin-4-yl)-7-(1H-imidazol-5-yl)benzimidazol-5-yl]morpholine], CCc1nc2c(-c3cnn[nH]3)cc(N3CCOCC3)cc2n1-c1ccnc2c(F)ccc(F)c12 [Example 376, 4-(1-(5,8-difluoroquinolin-4-yl)-2-ethyl-4-(1H-1,2,3-triazol-5-yl)-1H-benzo[d]imidazol-6-yl)morpholine] is 1.15 log units lower in pIC50: 8.30 for the first, 7.15 for the second. The first is the more potent here.

Compared with Clc1cccc2c(-n3c(C4CC4)nc4c(-c5cnn[nH]5)cc(N5CCOCC5)cc43)ccnc12 [Example 378, 4-(1-(8-chloroquinolin-4-yl)-2-cyclopropyl-4-(1H-1,2,3-triazol-5-yl)-1H-benzo[d]imidazol-6-yl)morpholine], CCCc1nc2c(-c3ccn[nH]3)cc(N3CCOCC3)cc2n1-c1ccnc2c(F)ccc(F)c12 [Example 389] is 0.23 log units higher in pIC50: 7.57 for the first, 7.80 for the second. The second is the more potent here.

Compared with c1ccc2c(-n3cnc4c(-c5nnc[nH]5)cc(N5CCOCC5)cc43)cc(N3CCNCC3)nc2c1 [Example 379, 4-(1-(2-(piperazin-1-yl)quinolin-4-yl)-4-(4H-1,2,4-triazol-3-yl)-1H-benzo[d]imidazol-6-yl)morpholine], c1ccc2c(-n3cnc4c(-c5nnc[nH]5)cc(N5CCOCC5)cc43)cc(-c3cn[nH]c3)nc2c1 [Example 381, 4-(1-(2-(1H-pyrazol-4-yl)quinolin-4-yl)-4-(4H-1,2,4-triazol-3-yl)-1H-benzo[d]imidazol-6-yl)morpholine] is 0.48 log units lower in pIC50: 8.10 for the first, 7.62 for the second.

First: Cc1nnc(-c2cc(N3CCOCC3)cc3c2ncn3-c2cc(-c3cn[nH]c3)nc3ccccc23)[nH]1 [Example 380, 4-(1-(2-(1H-pyrazol-4-yl)quinolin-4-yl)-4-(5-methyl-4H-1,2,4-triazol-3-yl)-1H-benzo[d]imidazol-6-yl)morpholine]
Second: Cc1nnc(-c2cc(N3CCOCC3)cc3c2ncn3-c2cc(-c3cc[nH]n3)nc3ccccc23)[nH]1 [Example 382, 4-(1-(2-(1H-pyrazol-3-yl)quinolin-4-yl)-4-(5-methyl-4H-1,2,4-triazol-3-yl)-1H-benzo[d]imidazol-6-yl)morpholine]
The pIC50 of the first is 0.27 log units lower: 6.62 for the first, 6.89 for the second.

c1ccc2c(-n3cnc4c(-c5nnc[nH]5)cc(N5CCOCC5)cc43)cc(-c3cc[nH]n3)nc2c1 [Example 383, 4-(1-(2-(1H-pyrazol-3-yl)quinolin-4-yl)-4-(4H-1,2,4-triazol-3-yl)-1H-benzo[d]imidazol-6-yl)morpholine] and CCc1nc2c(-c3ncc[nH]3)cc(N3CCOCC3)cc2n1-c1ccnc2c(F)ccc(F)c12 [Example 387, 4-(1-(5,8-difluoroquinolin-4-yl)-2-ethyl-4-(1H-imidazol-2-yl)-1H-benzo[d]imidazol-6-yl)morpholine] are within 0.2 log units of each other in pIC50: 7.96 for the first, 7.89 for the second.

With CCCc1nc2c(-c3cn[nH]c3)cc(N3CCOCC3)cc2n1-c1ccnc2c(F)ccc(F)c12 [Example 388, 4-(1-(5,8-difluoroquinolin-4-yl)-2-propyl-4-(1H-pyrazol-4-yl)-1H-benzo[d]imidazol-6-yl)morpholine] the pIC50 was 5.96.
